Assay results reported in PubChem BioAssay AID1963833 (Molecular Pharmacology Branch, DTP, NCI, 2024).

Test system: 883617-216-R-J1-PDC complex spheroid viability
Experiment: Anticancer human tumor 883617-216-R-J1-PDC patient-derived bladder carcinoma cell line growth inhibition [POLQ]
Conditions: for IC50: curve of first compound; for viability, T/C: stronger effect = lower value
Method: Multicellular complex tumor spheroid response to Polymerase (POL) inhibitors (novobiocin, ART-558, RP6685) in combination with a variety of drugs and investigational agents in selected tumor cell lines
The POL inhibitors (novobiocin, ART-558, and RP6685) were evaluated both individually and in combination with standard of care and investigational anticancer small molecules within a complex spheroid model of solid tumors. . Complex spheroids include a stromal component modeled by human endothelial cells (HUVEC) and fibroblasts modeled by human mesenchymal stem cells (MSCs). The concentration ranges selected for each drug and investigational agent were based upon clinically achievable concentrations if the clinical Cmax of the agent was known.
Compounds. The drugs and investigational agents: novobiocin (NSC847541), ART-558 (NSC835418), RP-6685 (NSC848927), peposertib (NSC802822), ceralasertib (NSC780249), elimusertib (NSC800525), camonsertib (NSC841442), AZD-1390 (NSC803789), olaparib (NSC753686), talazoparib (NSC767125), rucaparib (NSC756644), sotorasib (NSC818433), MRTX-1133 (NSC836407), SN-38 (NSC673596), topotecan (NSC609699), epotoside (NSC141540), doxorubicin (NSC123127), gemcitabine (NSC613327), 5-fluorouracil (NSC19893), paclitaxel (NSC125973), vemurafenib (NSC761431), MSA-2 (NSC828583), SN-011 (NSC837082), adavosertib (NSC754352), prexasertib (NSC758257), carboplatin (NSC241240) and oxaliplatin (NSC266046), were obtained from the National Cancer Institute (NCI) Developmental Therapeutics Program Chemical Repository (21). The FDA-approved anticancer drug set is available from the Developmental Therapeutics Program at https://dtp.cancer.gov/organization/dscb/obtaining/. […] The stock solutions were prepared in dimethyl sulfoxide (DMSO, Sigma-Aldrich, St. Louis, MO, cat. D2650), except for the platinum compounds which were prepared in saline (Quality Biological, Gaithersburg, MD, cat. 114-055-101), at 800-fold the tested concentration and stored at -70 degrees C prior to their use. All drugs and investigational agents were tested over a range starting from a high concentration at or near the clinical Cmax and decreasing in half-log increments. If the clinical Cmax for an agent had not been determined, the highest concentration tested was 10 microM, except for SN-38, which was tested at a high concentration of 1 microM.
Cell Culture. All cells were maintained in an incubator at 37 degrees C and 5% CO2 with 95% humidity. The PDC lines were cultured according to standard operating procedures established by the NCI PDMR (https://pdmr.cancer.gov). Table 3 of the manuscript, lists the cell lines along with the number of the three cell types plated to form the mct-spheroids and media for tumor cell growth. After thawing, all PDC lines, except 997537-175-T-J1-PDC and 415267-285-R-J2-PDC, were cultured in Matrigel-coated flasks prepared with a working solution of 1X Ham's F-12 nutrient mix, without supplementation (Thermo Fisher Scientific, cat. 11765054), 100 U/mL penicillin-streptomycin (Thermo Fisher Scientific, cat. 15140122), and 2.5% Matrigel (Corning Inc., Corning, NY, cat. 354248) for the first three passages. The two PDC lines 997537-175-T-J1-PDC and 415267-285-R-J2-PDC were cultured on uncoated flasks. The 857933-349-R-J2-PDC line was cultured in 6C/Colon 1B media containing advanced DMEM/F-12 (Thermo Fisher Scientific, cat. 12634028), 10 mM HEPES (Thermo Fisher Scientific, cat. 15630080), 1X GlutaMAX supplement (Thermo Fisher Scientific, cat. 35050061), 0.1 mg/mL primocin (InvivoGen, San Diego, CA, cat. ant-pm-2), 10% defined fetal bovine serum, heat inactivated (HyClone Laboratories Inc., Logan, UT, cat. SH30070.03HI), 50% L-WRN conditioned media (ATCC, cat. CRL-3276), 1.25 mM N-Acetyl-L-cysteine (Sigma-Aldrich, cat. A9165), 10 mM nicotinamide (Sigma-Aldrich, cat. N0636), 1X B-27 supplement (Thermo Fisher Scientific, cat. 17504044), 1X N-2 supplement (Thermo Fisher Scientific, cat. […]

[1] = second compound 0.0316 µM, first compound 0.0316 µM
[2] = second compound 0.0316 µM, first compound 0.1 µM
[3] = second compound 0.0316 µM, first compound 0.316 µM
[4] = second compound 0.0316 µM, first compound 1 µM
[5] = second compound 0.0316 µM, first compound 3.16 µM
[6] = second compound 0.0316 µM, first compound 10 µM
[7] = second compound 0.1 µM, first compound 0.0316 µM
[8] = second compound 0.1 µM, first compound 0.1 µM
[9] = second compound 0.1 µM, first compound 0.316 µM
[10] = second compound 0.1 µM, first compound 1 µM
[11] = second compound 0.1 µM, first compound 3.16 µM
[12] = second compound 0.1 µM, first compound 10 µM
[13] = second compound 0.316 µM, first compound 0.0316 µM
[14] = second compound 0.316 µM, first compound 0.1 µM
[15] = second compound 0.316 µM, first compound 0.316 µM
[16] = second compound 0.316 µM, first compound 1 µM
[17] = second compound 0.316 µM, first compound 3.16 µM
[18] = second compound 0.316 µM, first compound 10 µM
[19] = second compound 1 µM, first compound 0.0316 µM
[20] = second compound 1 µM, first compound 0.1 µM
[21] = second compound 1 µM, first compound 0.316 µM
[22] = second compound 1 µM, first compound 1 µM
[23] = second compound 1 µM, first compound 3.16 µM
[24] = second compound 1 µM, first compound 10 µM
[25] = second compound 3.16 µM, first compound 0.0316 µM
[26] = second compound 3.16 µM, first compound 0.1 µM
[27] = second compound 3.16 µM, first compound 0.316 µM
[28] = second compound 3.16 µM, first compound 1 µM
[29] = second compound 3.16 µM, first compound 3.16 µM
[30] = second compound 3.16 µM, first compound 10 µM
[31] = second compound 10 µM, first compound 0.0316 µM
[32] = second compound 10 µM, first compound 0.1 µM
[33] = second compound 10 µM, first compound 0.316 µM
[34] = second compound 10 µM, first compound 1 µM
[35] = second compound 10 µM, first compound 3.16 µM
[36] = second compound 10 µM, first compound 10 µM
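Also: spheroids exposed to compounds for seven days before readout.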
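For viability, T/C in this document: 100% = DMSO vehicle control viability.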

**Q.** `COc1cc(C2c3cc4c(cc3C(OC3OC5COC(C)OC5C(O)C3O)C3COC(=O)C23)OCO4)cc(OC)c1O` (centres undefined) + COC1C(OC(N)=O)C(O)C(Oc2ccc3c(O)c(NC(=O)c4ccc(O)c(CC=C(C)C)c4)c(=O)oc3c2C)OC1(C)C was tested. Which IC50 (second compound 0.0316 µM) did it give?
**A.** > 10000 nM

**Q.** And the IC50 (second compound 0.1 µM)?
**A.** > 10000 nM

**Q.** What about the IC50 (second compound 0.316 µM) of the same compound?
**A.** > 10000 nM

**Q.** And the IC50 (second compound 1 µM)?
**A.** > 10000 nM

**Q.** And the IC50 (second compound 3.16 µM)?
**A.** > 10000 nM

**Q.** What about the IC50 (second compound 10 µM) of the same compound?
**A.** > 10000 nM

**Q.** And the viability, T/C [1]?
**A.** 96.1%

**Q.** What about the viability, T/C [2] of the same compound?
**A.** 90%

**Q.** What about the viability, T/C [3] of the same compound?
**A.** 74.3%

**Q.** And the viability, T/C [4]?
**A.** 61.8%

**Q.** What about the viability, T/C [5] of the same compound?
**A.** 59.5%

**Q.** And the viability, T/C [6]?
**A.** 51.7%

**Q.** And the viability, T/C [7]?
**A.** 109%

**Q.** What about the viability, T/C [8] of the same compound?
**A.** 89.6%

**Q.** And the viability, T/C [9]?
**A.** 71.1%

**Q.** What about the viability, T/C [10] of the same compound?
**A.** 69%

**Q.** What about the viability, T/C [11] of the same compound?
**A.** 51.2%

**Q.** What about the viability, T/C [12] of the same compound?
**A.** 59.3%

**Q.** What about the viability, T/C [13] of the same compound?
**A.** 87%

**Q.** And the viability, T/C [14]?
**A.** 90.2%

**Q.** And the viability, T/C [15]?
**A.** 78.9%

**Q.** And the viability, T/C [16]?
**A.** 72.2%

**Q.** And the viability, T/C [17]?
**A.** 70.8%

**Q.** And the viability, T/C [18]?
**A.** 51%

**Q.** What about the viability, T/C [19] of the same compound?
**A.** 97%

**Q.** What about the viability, T/C [20] of the same compound?
**A.** 89.5%

**Q.** And the viability, T/C [21]?
**A.** 72.9%

**Q.** And the viability, T/C [22]?
**A.** 57.9%

**Q.** And the viability, T/C [23]?
**A.** 57.3%

**Q.** And the viability, T/C [24]?
**A.** 48.9%

**Q.** And the viability, T/C [25]?
**A.** 106%

**Q.** What about the viability, T/C [26] of the same compound?
**A.** 92.1%

**Q.** What about the viability, T/C [27] of the same compound?
**A.** 72.7%

**Q.** And the viability, T/C [28]?
**A.** 65.7%

**Q.** What about the viability, T/C [29] of the same compound?
**A.** 57.4%

**Q.** What about the viability, T/C [30] of the same compound?
**A.** 52.7%

**Q.** And the viability, T/C [31]?
**A.** 97.2%

**Q.** What about the viability, T/C [32] of the same compound?
**A.** 95.4%

**Q.** And the viability, T/C [33]?
**A.** 73%

**Q.** And the viability, T/C [34]?
**A.** 59.8%

**Q.** And the viability, T/C [35]?
**A.** 55.6%

**Q.** What about the viability, T/C [36] of the same compound?
**A.** 53%

**Q.** Which IC50 (second compound 0.0316 µM) does the source give for `COc1cccc2c1C(=O)c1c(O)c3c(c(O)c1C2=O)CC(O)(C(=O)CO)CC3OC1CC(N)C(O)C(C)O1` (centres undefined) + COC1C(OC(N)=O)C(O)C(Oc2ccc3c(O)c(NC(=O)c4ccc(O)c(CC=C(C)C)c4)c(=O)oc3c2C)OC1(C)C here?
**A.** 186 nM

**Q.** What about the IC50 (second compound 0.1 µM) of the same compound?
**A.** 320 nM

**Q.** And the IC50 (second compound 0.316 µM)?
**A.** 251 nM

**Q.** And the IC50 (second compound 1 µM)?
**A.** 214 nM

**Q.** What about the IC50 (second compound 3.16 µM) of the same compound?
**A.** 308 nM

**Q.** What about the IC50 (second compound 10 µM) of the same compound?
**A.** 151 nM

**Q.** And the viability, T/C [1]?
**A.** 62.3%

**Q.** What about the viability, T/C [2] of the same compound?
**A.** 49.8%

**Q.** And the viability, T/C [3]?
**A.** 45.3%

**Q.** What about the viability, T/C [4] of the same compound?
**A.** 4.36%

**Q.** And the viability, T/C [5]?
**A.** 0.76%

**Q.** And the viability, T/C [6]?
**A.** 0.26%

**Q.** What about the viability, T/C [7] of the same compound?
**A.** 67.3%

**Q.** And the viability, T/C [8]?
**A.** 59.6%

**Q.** What about the viability, T/C [9] of the same compound?
**A.** 50.8%

**Q.** What about the viability, T/C [10] of the same compound?
**A.** 6%

**Q.** And the viability, T/C [11]?
**A.** 0.55%

**Q.** And the viability, T/C [12]?
**A.** 0.43%

**Q.** What about the viability, T/C [13] of the same compound?
**A.** 70.4%

**Q.** What about the viability, T/C [14] of the same compound?
**A.** 58.2%

**Q.** What about the viability, T/C [15] of the same compound?
**A.** 47.5%

**Q.** And the viability, T/C [16]?
**A.** 6.74%

**Q.** What about the viability, T/C [17] of the same compound?
**A.** 1.39%

**Q.** And the viability, T/C [18]?
**A.** 1.91%

**Q.** And the viability, T/C [19]?
**A.** 73.9%

**Q.** What about the viability, T/C [20] of the same compound?
**A.** 55%

**Q.** And the viability, T/C [21]?
**A.** 45%

**Q.** What about the viability, T/C [22] of the same compound?
**A.** 3.27%

**Q.** And the viability, T/C [23]?
**A.** 0.35%

**Q.** What about the viability, T/C [24] of the same compound?
**A.** 1.2%

**Q.** And the viability, T/C [25]?
**A.** 61.1%

**Q.** And the viability, T/C [26]?
**A.** 48.6%

**Q.** And the viability, T/C [27]?
**A.** 50%

**Q.** And the viability, T/C [28]?
**A.** 4.18%

**Q.** And the viability, T/C [29]?
**A.** 1.17%

**Q.** What about the viability, T/C [30] of the same compound?
**A.** 0.37%

**Q.** And the viability, T/C [31]?
**A.** 59.5%

**Q.** What about the viability, T/C [32] of the same compound?
**A.** 50.9%

**Q.** And the viability, T/C [33]?
**A.** 41.5%

**Q.** What about the viability, T/C [34] of the same compound?
**A.** 5%

**Q.** What about the viability, T/C [35] of the same compound?
**A.** 0.8%

**Q.** What about the viability, T/C [36] of the same compound?
**A.** 0.3%
